Legend:
[1] = target: T1, human recombinant Bcl-2 protein (Homo sapiens, UniProt P10415); assay: Fluorescence polarization test for inhibition of BCL-2 binding to FITC-BIM; details: 5 nM BCL-2, 5 nM FITC-BIM, read-out: FP BCL-2 IC50
T1 construct: purchased Beijing Yigiao Shenzhou Biotechnology Co., Ltd. 10195-HOSE
Experimental: Fluorescence polarization assay was used to evaluate the effect of the compounds of the present invention on the biological activity of BCL-2.
The effects of the compounds on the biological activity of BCL-2 were evaluated by determining the effects of the compounds on the binding activity of BCL-2 to leukemia pro-apoptotic protein (BIM) using an affinity assay method based on the principle of fluorescence polarization. The reaction buffer comprises the following components: PBS (pH 7.4, 3 mM Na2HPO4, 155 mM NaCl, 1 mM KH2PO4), 1 mM DTT; human recombinant Bcl-2 protein (Item No. 10195-HOSE) (purchased from Beijing Yigiao Shenzhou Biotechnology Co., Ltd.) was diluted to 5 nM with the reaction buffer; FITC-labeled BIM polypeptide (purchased from Nanjing GenScript Biotechnology Co., Ltd.) was diluted to 5 nM with the reaction buffer.
The compounds were dissolved in 100% DMSO and diluted to 0.1, 1, 10 μM, followed by 4-fold serial dilutions with DMSO to a minimum concentration of 0.0061, 0.061, 0.61 nM, each concentration point was further diluted 50-fold with the reaction buffer.
3 μL of solution containing the compound and 12 μL of solution containing BCL-2 were added to the black 384-well assay plate, mixed well, and incubated at room temperature for 15 minutes. Subsequently, 15 μL of FITC-BIM solution was added, and the reaction mixture was incubated at room temperature for 30 minutes in dark place, and then the fluorescence polarization was detected immediately on an Envision multi-mode reader (Perkin Elmer), with 480 nm as the excitation wavelength and 535 nm as the emission wavelength. In this experiment, the group without BCL-2 protein was used as a negative control (100% inhibition), and the group with BCL-2 protein but without the compound was used as a positive control (0% inhibition). The inhibition percentage of the compound to the affinity of BCL-2 can be calculated using the following equation: […]
(§1) The IC50 of the compound was calculated from 8 concentration points using XLfit (ID Business Solutions Ltd., UK) software by the following equation:
(§2) Y=Bottom+(Top−Bottom)/(1+10^((log IC50−X)*slope factor))
(§3) where Y is the inhibition percentage, X is the logarithm of the concentration of the compound to be tested, Bottom is the maximum inhibition percentage, Top is the minimum inhibition percentage, and slope factor is the slope coefficient of the curve.

[2] = target: T2, human recombinant Bcl-XL protein (Homo sapiens, UniProt Q07817); assay: Fluorescence polarization test for inhibition of BCL-XL binding to FITC-BIM; details: 10 nM BCL-XL, 10 nM FITC-BIM, read-out: FP BCL-XL IC50
T2 construct: purchased Beijing Yiqiao Shenzhou Biotechnology Co., Ltd. 10455-H0SE
T2 sequence (Q07817 whole entry): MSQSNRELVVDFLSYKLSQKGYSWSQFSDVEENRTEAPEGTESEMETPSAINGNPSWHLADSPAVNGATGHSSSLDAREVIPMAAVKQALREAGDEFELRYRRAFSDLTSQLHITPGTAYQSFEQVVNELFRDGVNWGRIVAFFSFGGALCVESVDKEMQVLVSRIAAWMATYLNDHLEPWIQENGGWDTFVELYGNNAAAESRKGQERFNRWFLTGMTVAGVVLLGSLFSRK
Experimental: Fluorescence polarization assay was used to evaluate the effect of the compounds of the present invention on the biological activity of BCL-XL.
The effects of the compounds on the biological activity of BCL-XL were evaluated by detecting the effects of the compounds on the binding activity of BCL-XL to BIM using an affinity assay method based on the principle of fluorescence polarization. The reaction buffer contains the following components: PBS (pH 7.4, 3 mM Na2HPO4, 155 mM NaCl, 1 mM KH2PO4), 1 mM DTT; human recombinant Bcl-XL protein (Item No. 10455-H0SE) (purchased from Beijing Yiqiao Shenzhou Biotechnology Co., Ltd.) was diluted to 10 nM with reaction buffer; FITC-labeled BIM polypeptide (purchased from Nanjing GenScript Biotechnology Co., Ltd) was diluted to 10 nM with reaction buffer.
The compounds were dissolved in 100% DMSO and diluted to 1 μM, followed by 4-fold serial dilutions in DMSO to a minimum concentration of 0.061 nM, each concentration point was further diluted 50-fold with reaction buffer.
3 μL of solution containing the compound and 12 μL of solution containing BCL-XL were added to the black 384-well assay plate, mixed well, and incubated at room temperature for 15 minutes. Subsequently, 15 μL of FITC-BIM solution was added, and the reaction mixture was incubated at room temperature for 30 minutes in the dark place, and then the fluorescence polarization was detected immediately on an Envision multi-plate reader (Perkin Elmer), with 480 nm as the excitation wavelength and 535 nm as the emission wavelength. In this experiment, the group without BCL-XL protein was used as a negative control (100% inhibition), and the group with BCL-XL protein but without the compound was added as a positive control (0% inhibition). The inhibition percentage of the compound to the affinity of BCL-XL can be calculated using the following equation: […]
as §1, §2, §3

[3] = tested on: RS4;11 cells (acute lymphoblastic leukemia cells); assay: RS4;11 cell proliferation, CellTilter-Glo luminescence cell viability assay; assay type: cell-based; details: Homo sapiens, RS4-11; CTG readout after 48 hours
Experimental: The effects of the compounds of the present invention on the proliferation of RS4;11 cells were evaluated using a luminescence cell viability assay.
A CellTilter-Glo (CTG) Assay Kit is used to detect ATP, a key indicator of the metabolism of living cells, through a unique, highly sensitive and stable luciferase. The luminescent signal generated in the assay is proportional to the number of the viable cells in the medium, therefore the cell proliferation of RS4;11 can be determined.
CellTilter-Glo reagent (Promega, G7572) is composed of CellTilter-Glo lyophilized powder and CellTilter-Glo buffer, and the lyophilized powder can be dissolved in the buffer for use.
RS4;11 cells (ATCC, CRL-1873) were cultured in RPMI1640 complete medium (Thermofisher, 72400-047) containing 10% FBS (GBICO, 10099-141) and 100 units/ml penicillin-streptomycin solution (Thermofisher, 15140122)), when the cells covered 80-90% in the culture vessel, they were digested and dispersed with 0.25% trypsin (containing EDTA) (Thermofisher, 25200056) and then planted in a white 384-well plate (Thermofisher, 164610), and then the 384-well plate was incubated overnight in a 37° C., 5% CO2 incubator. Compounds were dissolved in 100% DMSO and diluted to […], followed by 4-fold serial dilutions with DMSO to a minimum concentration of 0.061 μM, and each concentration point was further diluted 50-fold with FBS-free RPMI1640 medium. If the IC50 of the compound is very low, the initial concentration of the compound can be reduced. After overnight, 3 μL of the compound diluted in the medium was added to each well, and the mixture was gently centrifuged to mix. The group without cells was used as a negative control (100% inhibition), and the group with 0.2% DMSO was used as a positive control (0% inhibition). The 384-well plate was placed in a 37° C., 5% CO2 incubator for further cultivation. After 48 hours, the plate was taken out and equilibrated to room temperature. 15 μl of CTG reagent was added to each well, the plate was shaken gently for 3 minutes to make sure that the cell lysis was carried out thoroughly, then the plate was kept for 10 minutes to stabilize the luminescence signal, then the luminescence signal was read by EnVision (Perkin Elmer).
The inhibition percentage of the compounds to RS4;11 cell proliferation can be calculated using the following equation:
Inhibition Percentage=100−100*(signal compound-signal negative control)/(signal positive control-signal negative control)
as §1
Y=Bottom+(Top−Bottom)/(1+10^((Log IC50−X)*slope factor))
wherein, Y is the inhibition percentage, Bottom is the bottom plateau of the curve (the bottom plateau value of the S-shaped curve), Top is the top plateau of the curve (the top plateau value of the S-shaped curve), and X is the logarithm of the concentration of the compound to be tested.

T1 sequence (P10415 whole entry): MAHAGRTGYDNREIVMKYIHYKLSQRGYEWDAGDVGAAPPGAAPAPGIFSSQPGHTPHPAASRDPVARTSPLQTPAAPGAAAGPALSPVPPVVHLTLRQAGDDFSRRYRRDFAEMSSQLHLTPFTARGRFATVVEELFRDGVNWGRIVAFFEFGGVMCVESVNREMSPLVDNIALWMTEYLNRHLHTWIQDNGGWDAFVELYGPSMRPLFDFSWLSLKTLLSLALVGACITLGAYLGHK

IC50 [1] | IC50 [2] | IC50 [3] | Compound
1.46 nM | 953 nM | 3.1 nM | C[C@H]1CCC(CN2CCN(c3ccc(C(=O)NS(=O)(=O)c4cc(F)c(NC[C@H]5COCCO5)c([N+](=O)[O-])c4)c(Oc4cnc5[nH]ccc5c4)c3)C[C@H]2C)=C(c2ccc(Cl)cc2)C1 [Example 17, N-((4-((((S)-1,4-dioxan-2-yl)methyl)amino)-3-fluoro-5-nitrophenyl)sulfonyl)-2-((1H-pyrrolo[2,3-b]pyridin-5-yl)oxy)-4-((R)-4-(((S)-4′-chloro-5-methyl-3,4,5,6-tetrahydro-[1,1′-biphenyl]-2-yl)methyl)-3-methylpiperazin-1-yl)benzamide]
2.13 nM | > 1000 nM | 4.25 nM | C[C@@H]1CCC(CN2CCN(c3ccc(C(=O)NS(=O)(=O)c4ccc(NCC5CCOCC5)c([N+](=O)[O-])c4)c(Oc4cnc5[nH]ccc5c4)c3)C[C@H]2C)=C(c2ccc(Cl)cc2)C1 [Example 19, 2-((1H-pyrrolo[2,3-b]pyridin-5-yl)oxy)-4-((R)-4-(((R)-4′-chloro-5-methyl-3,4,5,6-tetrahydro-[1,1′-biphenyl]-2-yl)methyl)-3-methylpiperazin-1-yl)-N-((3-nitro-4-(((tetrahydro-2H-pyran-4-yl)methyl)amino)phenyl)sulfonyl)benzamide]
2.57 nM | > 1000 nM | 8.8 nM | C[C@@H]1CCC(CN2CCN(c3ccc(C(=O)NS(=O)(=O)c4ccc(NC[C@H]5COCCO5)c([N+](=O)[O-])c4)c(Oc4cnc5[nH]ccc5c4)c3)C[C@H]2C)=C(c2ccc(Cl)cc2)C1 [Example 20, N-((4-((((S)-1,4-dioxan-2-yl)methyl)amino)-3-nitrophenyl)sulfonyl)-2-((1H-pyrrolo[2,3-b]pyridin-5-yl)oxy)-4-((R)-4-(((R)-4′-chloro-5-methyl-3,4,5,6-tetrahydro-[1,1′-biphenyl]-2-yl)methyl)-3-methylpiperazin-1-yl)benzamide]
1.97 nM | > 1000 nM | 8.8 nM | C[C@@H]1CCC(CN2CCN(c3ccc(C(=O)NS(=O)(=O)c4cc(F)c(NCC5CCOCC5)c([N+](=O)[O-])c4)c(Oc4cnc5[nH]ccc5c4)c3)C[C@H]2C)=C(c2ccc(Cl)cc2)C1 [Example 21, 2-((1H-pyrrolo[2,3-b]pyridin-5-yl)oxy)-4-((R)-4-(((R)-4′-chloro-5-methyl-3,4,5,6-tetrahydro-[1,1′-biphenyl]-2-yl)methyl)-3-methylpiperazin-1-yl)-N-((3-fluoro-5-nitro-4-(((tetrahydro-2H-pyran-4-yl)methyl)amino)phenyl)sulfonyl)benzamide]
1.49 nM | > 1000 nM | 4.1 nM | C[C@@H]1CCC(CN2CCN(c3ccc(C(=O)NS(=O)(=O)c4cc(F)c(NC[C@H]5COCCO5)c([N+](=O)[O-])c4)c(Oc4cnc5[nH]ccc5c4)c3)C[C@H]2C)=C(c2ccc(Cl)cc2)C1 [Example 22]
9.37 nM | > 1000 nM | 51 nM | C[C@@H]1CCC(CN2CCN(c3ccc(C(=O)NS(=O)(=O)c4ccc(NCC5CCOCC5)c([N+](=O)[O-])c4)c(Oc4cnc5[nH]ccc5c4)c3)[C@H](C)C2)=C(c2ccc(Cl)cc2)C1 [Example 23, 2-((1H-pyrrolo[2,3-b]pyridin-5-yl)oxy)-4-((R)-4-(((R)-4′-chloro-5-methyl-3,4,5,6-tetrahydro-[1,1′-biphenyl]-2-yl)methyl)-2-methylpiperazin-1-yl)-N-((3-nitro-4-(((tetrahydro-2H-pyran-4-yl)methyl)amino)phenyl)sulfonyl)benzamide]
6.3 nM | > 1000 nM | 24 nM | C[C@@H]1CCC(CN2CCN(c3ccc(C(=O)NS(=O)(=O)c4ccc(NC[C@H]5COCCO5)c([N+](=O)[O-])c4)c(Oc4cnc5[nH]ccc5c4)c3)[C@H](C)C2)=C(c2ccc(Cl)cc2)C1 [Example 24]
2.71 nM | > 1000 nM | 32 nM | C[C@@H]1CCC(CN2CCN(c3ccc(C(=O)NS(=O)(=O)c4cc(F)c(NCC5CCOCC5)c([N+](=O)[O-])c4)c(Oc4cnc5[nH]ccc5c4)c3)[C@H](C)C2)=C(c2ccc(Cl)cc2)C1 [Example 25, 2-((1H-pyrrolo[2,3-b]pyridin-5-yl)oxy)-4-((R)-(((R)-4′-chloro-5-methyl-3,4,5,6-tetrahydro-[1,1′-biphenyl]-2-yl)methyl)-2-methylpiperazin-1-yl)-N-((3-fluoro-5-nitro-4-(((tetrahydro-2H-pyran-4-yl)methyl)amino)phenyl)sulfonyl)benzamide]
1.63 nM | > 1000 nM | 14 nM | C[C@@H]1CCC(CN2CCN(c3ccc(C(=O)NS(=O)(=O)c4cc(F)c(NC[C@H]5COCCO5)c([N+](=O)[O-])c4)c(Oc4cnc5[nH]ccc5c4)c3)[C@H](C)C2)=C(c2ccc(Cl)cc2)C1 [Example 26]

— patent US20230271959A1, “HETEROCYCLIC COMPOUND AS BCL-2 INHIBITOR” (Beijing Innocare Pharma Tech Co., Ltd., priority 2020, published 2023)
